Measurements as given in PMC9501377, “New Diarylamine KV10.1 Inhibitors and Their Anticancer Potential” (Pharmaceutics, 2022).

System: MCF-7 breast cancer cell line
Assay: MTS antiproliferative assay
Type: cell-based
Conditions: Homo sapiens, MCF7, 72 h
Method: The antiproliferative activities of the compounds were evaluated on the breast cancer cell line MCF-7 (ATCC HTB-22, adherent cells isolated from a person), using an MTS (Promega, Madison, WI, USA) assay according to the manufacturer’s instructions. The MCF-7 cell line was obtained from the American Type Culture Collection (ATCC, Manassas, VA, USA). Cells were cultured in low-glucose Dulbecco’s Modified Eagle’s Medium (DMEM) (Sigma-Aldrich, St. Louis, MO, USA), supplemented with 10% fetal bovine serum (Gibco, Thermo Fisher Scientific, Waltham, MA, USA), 100 U/mL penicillin (Sigma-Aldrich, St. Louis, MO, USA), 100 µg/mL streptomycin (Sigma-Aldrich, St. Louis, MO, USA), and 2 mM L-glutamine (Sigma-Aldrich, St. Louis, MO, USA). The cell line was incubated in a 5% CO2 atmosphere at 37 °C. Cells were plated out in 96-well plates at a density of 2000 cells per well and incubated overnight. The next day, cells were treated with the indicated compounds, positive control (17-DMAG), or vehicle control (0.5% DMSO) and incubated for 72 h. […] Absorbance was measured at 492 nm using a microplate reader (Synergy 4 Hybrid; BioTek, Winooski, VT, USA). […] Statistical significance (p < 0.05) was calculated using a two-tailed Welch’s t-test between treated groups and DMSO. IC50 values are given as averages of the independent measurements and were calculated using GraphPad Prism 8.0 software (San Diego, CA, USA). […]

CCN(CC)CCOc1ccc(Nc2ccc(C(F)(F)F)cc2[N+](=O)[O-])cc1 [Compound 17a, N-(4-(2-(Diethylamino)ethoxy)phenyl)-2-nitro-4-(trifluoromethyl)aniline]
IC50: 18.5 ± 1.5 µM

CN(C)CCOc1c(Br)cc(Nc2ccc(C(F)(F)F)cc2[N+](=O)[O-])cc1Br [Compound 18b, 3,5-Dibromo-4-(2-(dimethylamino)ethoxy)-N-(2-nitro-4-(trifluoromethyl)phenyl)aniline]
IC50: 11.9 ± 1 µM
